Assays:
human SIRT3 = target: T1, human SIRT3 (Homo sapiens, UniProt Q9NTG7); experiment: Fluorescence polarization assay to identify modulators of SIRT3 activity; format: biochemical; details: for EC50: activation of SIRT3 (Table 5), read-out: ED50 (the source's name); for IC50: inhibition of SIRT3 (Table 6)
T1 sequence (Q9NTG7 102-399): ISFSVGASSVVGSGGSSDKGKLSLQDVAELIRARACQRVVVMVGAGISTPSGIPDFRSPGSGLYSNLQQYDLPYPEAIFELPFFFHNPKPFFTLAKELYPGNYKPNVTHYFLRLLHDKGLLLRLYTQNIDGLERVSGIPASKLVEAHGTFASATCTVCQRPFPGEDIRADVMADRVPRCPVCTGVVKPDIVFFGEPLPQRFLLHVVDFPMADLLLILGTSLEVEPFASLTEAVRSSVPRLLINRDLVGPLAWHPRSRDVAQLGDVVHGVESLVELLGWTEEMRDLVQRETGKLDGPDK
Excerpt: A fluorescence polarization assay was used to identify modulators of SIRT3 activity. The same assay may be used to identify modulators of any sirtuin protein. The assay utilizes a peptide substrate based on a fragment of Histone H4, a known sirtuin deacetylation target. The substrate contains a peptide having 14 amino acid residues as follows: Biotin-GASSHSK(Ac)VLK(MR121) (SEQ ID NO: 3) wherein K(Ac) is an acetylated lysine residue. The peptide is labeled with the fluorophore MR121 (excitation 635 nm/emission 680 nm) at the C-terminus and biotin at the N-terminus.
The peptide substrate is exposed to a sirtuin protein in the presence of NAD^+ to allow deacetylation of the substrate and render it sensitive to cleavage by trypsin. Trypsin is then added and the reaction is carried to completion (i.e., the deacetylated substrate is cleaved) releasing the MR121 fragment. Streptavidin is then added to the reaction where it can bind both the uncleaved substrate (i.e., any remaining acetylated substrate) and the non-fluorescent portion of the cleaved peptide substrate (i.e., the biotin containing fragment). The fluorescence polarization signal observed for the full length peptide substrate bound to streptavidin is higher than the fluorescence polarization signal observed for the released MR121 C-terminal fragment. Therefore, the fluorescence polarization obtained is inversely proportional to the level of deacetylation (e.g., the signal is inversely proportional to the activity of the sirtuin protein). Results are read on a microplate fluorescence polarization reader (Molecular Devices Spectramax MD) with appropriate excitation and emission filters.
The fluorescence polarization assays may be conducted as follows: 0.5 μM peptide substrate and 50 μM βNAD^+ is incubated with 2 nM of SIRT3 for 60 minutes at 37° C. in a reaction buffer (25 mM Tris-acetate pH8, 137 mM Na—Ac, 2.7 mM K—Ac, 1 mM Mg—Ac, 0.1% Pluronic F127, 10 mM CaCl2, 1 mM TCEP, 0.025% BSA). Test compounds are solubilized in DMSO and are added to the reaction at 11 concentrations ranging from 0.7 μM to 100 μM. The SIRT3 protein used in the assays corresponded to amino acid residues 102-399 of human SIRT3 with an N-terminal His-tag. The protein was overexpressed in E. coli and purified on a nickel chelate column using standard techniques. After the 60 minute incubation with SIRT3, nicotinamide is added to the reaction to a final concentration of 3 mM to stop the deacetylation reaction and 0.5 μg/mL of trypsin is added to cleave the deacetylated substrate. The reaction is incubated for 30 minutes at 37° C. in the presence of 1 mM streptavidin. Fluorescent polarization is determined at excitation (650 nm) and emissions (680 nm) wavelengths. The level of activity of the sirtuin protein in the presence of the various concentrations of test compound are then determined and may be compared to the level of activity of the sirtuin protein in the absence of the test compound, and/or the level of activity of the sirtuin proteins in the negative control (e.g., level of inhibition) and positive control (e.g., level of activation) described below.
A control for activation of sirtuin activity is conducted using 0.5 μg/mL of sirtuin protein to reach baseline deacetylation of the substrate (e.g., to determine normalized sirtuin activity).

SIRT1 = target: T2, SIRT1 (Homo sapiens, UniProt Q96EB6); experiment: Fluorescence polarization or mass spectrometry based assay to identify modulators of SIRT1 activity; format: biochemical; details: activation of SIRT1 (Table 3); read-out: ED50 (the source's name);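 also: deacetylation of a fluorophore-tagged p53-derived acetyl peptide by SIRT1, detected as fluorescence polarization after trypsin cleavage and streptavidin binding, compounds tested at 11 doses from 0.7 to 100 µM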
T2 sequence (Q96EB6 1-747): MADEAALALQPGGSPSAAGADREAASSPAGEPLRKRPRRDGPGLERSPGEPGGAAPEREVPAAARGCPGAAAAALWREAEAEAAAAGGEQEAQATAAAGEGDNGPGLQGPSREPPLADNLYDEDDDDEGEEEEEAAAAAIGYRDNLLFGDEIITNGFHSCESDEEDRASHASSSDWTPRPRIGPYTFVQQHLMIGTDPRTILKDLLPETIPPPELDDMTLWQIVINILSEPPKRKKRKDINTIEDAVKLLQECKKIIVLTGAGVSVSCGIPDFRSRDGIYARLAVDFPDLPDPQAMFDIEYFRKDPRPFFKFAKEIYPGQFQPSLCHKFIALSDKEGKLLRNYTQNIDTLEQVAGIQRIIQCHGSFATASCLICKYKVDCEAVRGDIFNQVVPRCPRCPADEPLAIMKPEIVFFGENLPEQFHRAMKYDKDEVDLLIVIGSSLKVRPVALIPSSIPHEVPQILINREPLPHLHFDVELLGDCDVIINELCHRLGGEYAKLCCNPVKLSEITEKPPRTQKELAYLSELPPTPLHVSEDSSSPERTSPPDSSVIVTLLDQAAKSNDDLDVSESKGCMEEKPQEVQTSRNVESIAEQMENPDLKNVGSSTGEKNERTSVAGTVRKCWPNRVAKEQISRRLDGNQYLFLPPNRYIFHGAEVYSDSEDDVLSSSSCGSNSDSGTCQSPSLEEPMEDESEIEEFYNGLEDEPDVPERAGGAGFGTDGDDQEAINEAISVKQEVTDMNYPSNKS

Compound	EC50 (human SIRT3) [µM]	IC50 (human SIRT3) [µM]	EC50 (SIRT1) [µM]
COc1ccc(-c2nc3c(C(=O)NC(C)C(=O)O)cccn3c2NCc2ccccc2)cc1[N+](=O)[O-] (centres unmarked) [Compound 76]	< 50		
COc1ccc(-c2nc3cc(C(=O)NC(CC(=O)O)C4CCCCC4)ccn3c2NC2CCCCC2)cc1OC (centres unmarked) [Compound 80]	51 to 100		
CCCCNc1c(-c2ccc(C#N)cc2)nc2c(C(=O)NC(CC(=O)O)c3cccc([N+](=O)[O-])c3)cccn12 (centres unmarked) [Compound 72]	51 to 100		
Cc1cc(C(=O)Nc2ccc(-c3nc4ccc(C(=O)NCCCN5CCCC5=O)cn4c3NC3CCCCC3)cc2)no1 [Compound 89]		101 to 150	
CC(NC(=O)c1cccn2c(NCC3CCCO3)c(-c3ccc(N(C)C)cc3)nc12)C(=O)NCCC#N (centres unmarked) [Compound 45]	> 150		51 to 100
Cc1ccc(C(CC(=O)O)NC(=O)c2ccn3c(NC4CCCCC4)c(-c4ccc(C#N)cc4)nc3c2)cc1 (centres unmarked) [Compound 81]	51 to 100		
Nc1nc2ccc(-c3nc4ccccc4[nH]3)cc2s1 [Compound 14]	101 to 150		101 to 150
CCCCNc1c(-c2ccc(OC)c([N+](=O)[O-])c2)nc2c(C(=O)NC(C)C(=O)O)cccn12 (centres unmarked) [Compound 75]	51 to 100		
Cc1cccc(C)c1Nc1c(-c2ccc(C#N)cc2)nc2c(C(=O)NC(CC(=O)O)C3CCCCC3)cccn12 (centres unmarked) [Compound 70]	> 150		
Nc1ccc(-c2nc3ccc(-c4nc5ccc(N)cc5[nH]4)cc3[nH]2)cc1 [Compound 83]	> 150		
COc1ccc(-c2nc3c(C(=O)NC(CC(=O)O)c4cccc(C)c4)cccn3c2Nc2c(C)cccc2C)cc1[N+](=O)[O-] (centres unmarked) [Compound 67]	> 150		
Cc1csc(NC(=O)CSCC(=O)O)c1-c1nc2ccccc2s1 [Compound 5]	101 to 150		< 50
COc1ccc(-c2nc3c(C(=O)NC(CC(=O)O)c4cccc([N+](=O)[O-])c4)cccn3c2NCc2ccccc2)cc1[N+](=O)[O-] (centres unmarked) [Compound 73]	51 to 100		
N#Cc1ccc(-c2nc3c(C(=O)NC(CC(=O)O)C4CCCCC4)cccn3c2NCc2ccccc2)cc1 (centres unmarked) [Compound 32]	< 50		51 to 100
CN(C)c1ccc(-c2nc3ccc(C(=O)NCC(=O)NCC4CC4)cn3c2NC2CCCCC2)cc1 [Compound 88]		< 50	
Cc1ccccc1C(=O)N1CCN(C(=O)c2cccn3c(NCc4ccccc4)c(C(C)C)nc23)CC1 [Compound 87]		101 to 150	
COc1cccc(-c2nc3c(C(=O)NC(CC(=O)O)C4CCCCC4)cccn3c2NCc2ccccc2)c1 (centres unmarked) [Compound 69]	51 to 100		
CCCCNc1c(-c2ccc(F)cc2)nc2c(C(=O)NC(CC(=O)O)c3cccc([N+](=O)[O-])c3)cccn12 (centres unmarked) [Compound 71]	51 to 100		
CC(C)(C)Nc1c(-c2ccc(F)cc2)nc2c(C(=O)NC(CC(=O)O)C3CCCCC3)cccn12 (centres unmarked) [Compound 78]	101 to 150		
CC(=O)Nc1ccc(-c2nc3c(C(=O)NC(CC(=O)O)C4CCCCC4)cccn3c2NCc2ccccc2)cc1 (centres unmarked) [Compound 37]	101 to 150		51 to 100
O=C(O)CC(NC(=O)c1cccn2c(NCc3ccccc3)c(-c3ccc(F)cc3)nc12)C1CCCCC1 (centres unmarked) [Compound 79]	51 to 100		
CC(NC(=O)c1cccn2c(NCC3CCCO3)c(-c3ccc(Cl)cc3)nc12)C(=O)NCCC#N (centres unmarked) [Compound 43]	51 to 100		< 50
Cc1cccc(C)c1Nc1c(-c2ccc(C#N)cc2)nc2c(C(=O)NC(CC(=O)O)c3cccc([N+](=O)[O-])c3)cccn12 (centres unmarked) [Compound 74]	> 150		
COc1ccc(-c2nc3c(C(=O)NC(CC(=O)O)C4CCCCC4)cccn3c2NC(C)(C)C)cc1[N+](=O)[O-] (centres unmarked) [Compound 29]	> 150		> 150
Nc1ccc(C(=O)Nc2nc3cc4sc(NC(=O)c5ccc(N)cc5)nc4cc3s2)cc1 [Compound 86]		51 to 100	

— patent US7998974B2, “Fused heterocyclic compounds and their use as sirtuin modulators” (Sirtris Pharmaceuticals, Inc., priority 2005, dated 2011)
